Data reported in patent publication EP1501797B1, “3-(SUBSTITUTED AMINO)-1H-INDOLE-2-CARBOXYLIC ACID ESTER AND 3-(SUBSTITUTED AMINO)-BENZO[B]THIOPHENE-2-CARBOXYLIC ACID ESTER DERIVATIVES AS INTERLEUKIN-4 GENE EXPRESSION INHIBITORS” (Aventis Pharmaceuticals Inc., priority 2002, dated 2003).

What was measured:
[1] = test system: eosinophil; test: OVA-induced lung inflammation in Brown Norway rats, eosinophil influx into bronchoalveolar fluid; assay type: in vivo; conditions: Rattus norvegicus, ip, intraperitoneal injection, FIG. 2, read-out: ED50, inhibition of the influx of eosinophil
Experimental: Rat model was very similar to the mouse models described earlier. Briefly, the lung inflammatory model described by Haczku et al. was used with minor modifications (Haczku A., et al., Immunology, (1996), 88, 247-251). Male Brown Norway rats, weighing 160-200 grams were sensitized with intraperitoneal injection of 1ml of a suspension containing ovalbumin (1 mg) and Al(OH)3 (100 mg) on days 1, 2 and 3. Three weeks later, the rats were treated with vehicle or drugs via intraperitoneal injections. One hour later, the rats were challenged with ovalbumin inhalation (1% solution, 10 mg/ml in sterilized saline) for 20 minutes in a 10 liter Plexiglas chamber which was connected to a DeVilbiss (Ultra-NEB®99) nebulizer with a carrier air flow of 1 liter/minute.
Results of dose response studies of 3-(4-pyridinylamino)-1H-indole-2-carboxylic acid on eosinophil influx into the bronchoalveolar fluid of ovalbumin sensitized and challenged Brown Norway rats are depicted as bar graphs in FIG. 2. Single dose of cyclosporin A (CsA) and dexamethasone (Dex) were also included as reference standards.

[2] = test system: IL-13; test: In vivo ovalbumin (OVA) mouse model, BALF IL-13; design: species or system mice; conditions: for IL-13 pg/ml (± SEM): 30 minutes before OVA challenge, BALF 24 hours, vehicle 120.2 ± 19.8
Experimental: This model is designed to determine the ability of a test article to modulate an antigen-induced pulmonary inflammatory cell accumulation in sensitized Balb/c mice from Charles River Laboratories. The mice are given a two week time period from arrival date prior to sensitizations.
On days 0, 7, 14, each animal is injected intraperitoneal (i.p.) with a 0.2 ml Ovalbumin Hydragel solution. Each animal receives 10 µg of Ovalbumin in 0.2 mL of Hydragel, aluminum hydroxide adsorptive gel containing 2% aluminum oxide. […] On day 22, BALF samples are collected from one group of animals and used for cytokine analysis. On day 24, BALF is obtained from a second group of animals and used for differential cell counts.
Test System: Female Babl/cJ mice (Jackson Laboratories), approximately 6-9 weeks old, each weighing approximately 20 to 25 grams, are divided into ten animals per group.
Sensitization Regimen: Mice are sensitized by an intraperitoneal injection of 10 µg ovalbumin (OVA) mixed in 4 mg aluminum hydroxide Al(OH)3 gel suspension in 0.2 ml sterile saline on Days 0, 7 and 14. This suspension is prepared one hour before intraperitoneal injection into each mouse. The animals are ready for OVA challenge on Day 21.
Antigen Challenge: Animals are exposed to aerosolized OVA on day 21 (5% w/v in sterile saline) for 20 minutes. The aerosol is generated by a PARI-Master nebulizer, the outlet of which is connected to a small Plexiglas® chamber containing the animals. Bronchoalveolar lavage is performed on Day 22.
Method of Study Performance: On day 24, 72 hours following aerosol OVA exposure, a separate group of animals are anesthetized with urethane (0.15 - 0.2 gm/kg) and the trachea is exposed and cannulated. […] Total cells and eosinophils are determined using a Technicon Hl and cytoslides, respectively. […]
Mice (12 animals per group) are sensitized with 0.2 ml of an AlOH3 hydrogel suspension (2% AlOH3) containing 50 µg/ml ovalbumin on days 0, 7 and 14. […] After the OVA challenge for 24 hours, the mice underwent bronchoalveolar lavage and IL-4 and IL-13 levels in the BALF are determined by ELISA. […]

[3] = test system: human IL-13 promoter; test: IL-13 Luc assay in Jurkat cells (2.1IL-13 Luc); assay type: cell-based; conditions: Jurkat cell line; concentration not given; 480 min

With `O=C(O)c1[nH]c2ccccc2c1Nc1ccncc1` [Example 28, 3-(4-Pyridinylamino)-1H-indole-2-carboxylic acid] the ED50 [1] was 10.1 mg/kg, the “IL-13 pg/ml (± SEM)” value ([2]; 10 mg/kg intranasal) was 59.9 ± 12.7 pg/mL and the “IL-13 pg/ml (± SEM)” value ([2]; 30 mg/kg intranasal) was 15.1 ± 7.1 pg/mL. The ED50 ([2]; Mus musculus, mice, intranasally, FIG. 1, read-out: ED50, allergen-induced IL-13 levels in the BALF) was about 10 mg/kg and the “2.1-IL-13 - Luc (% of control)” value [3] was 50 ± 12 % of control.
